“Also recorded” adds a separate entry of the source. Where two headings read alike, the source gives them in different places.
Legend:
THP-1 = experiment: CellTiter Glo cell viability assay, GI50, 72 hrs; assay type: cell-based
Procedure: (§1) CellTiter Glo cell viability assay was used to evaluate the antitumor effects of Compound 1 in combination with AML SOC drugs daunorubicin, Ara-C, decitabine, azacitidine and venetoclax in FLT3-WT AML cell lines THP-1, F-36P, OCl-AML2 and GDM-1. GI50 (the concentration for 50% of maximal inhibition of cell proliferation) was determined for each drug in AML cell lines.
(§2) Cells were treated for 72 hrs. Relative cell viability was measured by CellTiter Glo assay (Promega, Madison, WI) at 0 and at 72 hrs. GI50 was calculated using GraphPad Prism 8.0 software.

F-36P = experiment: CellTiter Glo cell viability assay, GI50, 72 hrs; assay type: cell-based
Procedure: as §1, §2

GDM-1 = experiment: CellTiter Glo cell viability assay, GI50, 72 hrs; assay type: cell-based
Procedure: as §1, §2

OC1-AML2 = experiment: CellTiter Glo cell viability assay, GI50, 72 hrs; assay type: cell-based
Procedure: as §1, §2

[1] = concentration used in the combination experiments; cited from earlier work
[2] = tested on: FLT3-WT AML cell lines THP-1, F-36P, OCl-AML2 and GDM-1; experiment: CellTiter Glo combination experiments summarised over the cell line panel; assay type: cell-based; conditions: 4 FLT3-WT AML cell lines, 96 hrs, clinically relevant drug concentration
Procedure: as §1, with “lines. Either GI50 (below peak plasma concentration) or peak plasma concentration (if GI50 was higher than peak plasma concentration) of each drug was used as clinically relevant concentration for combination experiments.” for “lines.”
Cells were treated continuously with clinically relevant drug concentration for 96 hrs. Relative cell viability was measured by CellTiter Glo assay (Promega, Madison, WI) at 0 and at 96 hrs according to manufacturer's instructions. All values are presented as mean±SE. Cell viability assay data were analyzed with one-way ANOVA. P values less than 0.05 were considered significant. Statistical analysis was performed using GraphPad Prism 8.0 software. + Less than 50% growth inhibition, p<0.05; ++ 50-100% growth inhibition, p<0.05; +++ Induction of cell death (cytotoxic effect), p<0.05; NS, not significant; ND, not defined. *Venetoclax resistant cell line, **Azacitidine/Decitabine resistant cell line. Clinically relevant conc (peak plasma conc): Compound 1-10 μM; Venetoclax—1 μM; and Azacitidine—4 μM.

[3] = F-36P cells, treated for 72 hrs, CellTiter Glo, read-out: GI50
[4] = OC1-AML2 cells, treated for 72 hrs, CellTiter Glo, read-out: GI50
[5] = Homo sapiens, THP-1 cells, treated for 72 hrs, CellTiter Glo, read-out: GI50
[6] = Homo sapiens, GDM-1 cells, treated for 72 hrs, CellTiter Glo, read-out: GI50

Compound | GI50 (THP-1; THP-1 cells, treated for 72 hrs, CellTiter Glo, read-out: GI50) [nM] | GI50 (F-36P; [3]) [nM] | GI50 (GDM-1; GDM-1 cells, treated for 72 hrs, CellTiter Glo, read-out: GI50) [nM] | GI50 (OC1-AML2; [4]) [nM] | Clinically relevant conc (peak plasma conc) [1] [µM] | GI50 (THP-1; [5]) [nM] | GI50 (GDM-1; [6]) [nM] | resistance of the cell line to the treatment (OC1-AML2; OCl-AML2) | antitumor effect of the combination over the cell line panel, in words [2] | GI50 (THP-1; Homo sapiens, THP-1, 72 h) [nM] | GI50 (F-36P; 72 h) [nM] | GI50 (GDM-1; Homo sapiens, GDM-1, 72 h) [nM] | GI50 (OC1-AML2; 72 h) [nM]
Nc1ccn([C@@H]2O[C@H](CO)[C@@H](O)[C@@H]2O)c(=O)n1 [Ara-C] | 150 | 150 | 5 | 4000 | – | – | – | – | – | – | – | – | –
Nc1ncn([C@@H]2O[C@H](CO)[C@@H](O)[C@H]2O)c(=O)n1 [Azacitidine] | – | 4000 | – | 30000 | 4 | 3000 | 2000 | resistant | – | – | – | – | –
Cc1cc(-c2nc(C(=O)Nc3cc4oc(N5CCOCC5)nc4nc3N3CC[C@@H](O)C3)co2)ccn1 [Compound 1] | – | > 20000 | – | 13000 | 10 | > 20000 | > 20000 | – | potentiated antitumor effects of azacitidine in 3 of 4 FLT3-WT AML cell lines; also recorded: significantly potentiated antitumor effects of azacitidine+venetoclax in all AML FLT3-WT cell lines | – | – | – | –
COc1cccc2c1C(=O)c1c(O)c3c(c(O)c1C2=O)C[C@@](O)(C(C)=O)C[C@@H]3O[C@H]1C[C@H](N)[C@H](O)[C@H](C)O1 [Daunorubicin] | – | – | – | – | – | – | – | – | – | 5 | 100 | 10 | 5
Nc1ncn([C@H]2C[C@H](O)[C@@H](CO)O2)c(=O)n1 [Decitabine] | – | – | – | – | – | – | – | – | – | 150 | 200 | 80 | 18000
CC1(C)CCC(CN2CCN(c3ccc(C(=O)NS(=O)(=O)c4ccc(NCC5CCOCC5)c([N+](=O)[O-])c4)c(Oc4cnc5[nH]ccc5c4)c3)CC2)=C(c2ccc(Cl)cc2)C1 [Venetoclax] | – | 18000 | – | 2 | 1 | 18000 | 5 | – | – | – | – | – | –

Reference: US12178821B2, “Combination therapies for the treatment of cancer” (Curis, Inc., priority 2021, dated 2024)
